Laboratory results: patent US6440980B1, “Synergistic inhibition of viral replication by long-chain hydrocarbons and nucleoside analogs” (Avanir Pharmaceuticals, priority 1996, dated 2002)
Read-outs that look alike come from different tables or passages of the source.

Legend:
HSV-2 [1] = test: Inhibition of HSV-2 plaque formation in Vero cells
B cell hybridoma (MBI-9) = test: 3H-thymidine incorporation into DNA of B cell hybridoma; assay type: cell-based, murine; conditions: Mus musculus, 48 hr incubation, read-out: IC50 estimated by extrapolation
[2] = system: Varicella Zoster Virus (VZV); test: VZV infectious center assay in MRC-5 cells; assay type: cell-based, human varicella zoster virus (Ellen strain); conditions: for IC per Culture × 10^−4: no ACV, medium only 35
[3] = system: human foreskin fibroblasts; test: Cell proliferation (cytostasis), sulforhodamine staining; assay type: cell-based; conditions: 1,000 cells/well, 96-hours incubation
Experimental: The effects of n-docosanol and n-docosane suspensions on cell proliferation (cytostasis) were quantitated using the sulforhodamine staining assay on cultures of human foreskin fibroblasts incubated in 96-well plates.
Foreskin fibroblasts were plated with or without aliphatic alcohol suspensions or control surfactant suspensions at 1,000 cells/well (FIG. 6A and FIG. 7) or at 30,000 cells/well (FIG. 6B) in 96 well plates. After incubation for 72 hr or 96 hr at 37° C., cells were precipitated with trichloroacetic acid, stained with sulforhodamine and quantitated by measuring the OD540 in a microtiter plate reader.

[4] = Inflammation or toxicity at treated skin sites (Example 15); conditions: 96 hours, alone or in combination
[5] = system: Early viral protein synthesis; conditions: Katz et al. 1991; cited from earlier work
Vero cells = conditions: African green monkey, 9 mM
HSV-1 = HSV-1 PFU production in Vero cell cultures; assay type: cell-based, HSV-1 (MacIntyre strain)
HSV-2 [6] = test: Topical treatment of HSV-2 in guinea pig model, number of vesicles (Example 9); assay type: in vivo, hairless guinea pigs; conditions: mean; for Number of Vesicles Day 2: 48 hr post-inoculation; for Number of Vesicles Day 3: 72 hr post-inoculation; for Number of Vesicles Day 4: 96 hr post-inoculation
Fetal Foreskin Cells = test: Cell viability by trypan blue exclusion, fetal foreskin cells; assay type: cell-based, human; conditions: for Fetal Foreskin Cells No. Viable: 9 mM n-docosanol in 1.4 mM surfactant (4:1 w:w), trypan blue exclusion; for Fetal Foreskin Cells % Control: 9 mM n-docosanol in 1.4 mM surfactant, control = media only
Experimental: Typical data are presented in Table 3, showing that the total number of viable Vero cells and foreskin fibroblasts was unchanged after 24 hr to 72 hr incubation with the aliphatic alcohol suspension.

all cell lines tested = test: Cytotoxicity in mammalian cell cultures; conditions: read-out: IC50 (cellular toxicity by chain length)
Description: Three assays were used to quantitate the effects of aliphatic alcohols on cell survival and proliferation: 1) counting cells with a hemocytometer and determining the number of cells that exclude trypan blue; 2) measuring the incorporation of ^3H-thymidine into cellular DNA by adding ^3H-thymidine (from New England Nuclear) to the culture medium, lysing the cells with water and harvesting the DNA onto filter paper; and 3) measuring total cellular protein using a sulforhodamine assay adapted for use in 96-well microtiter plates (Skehan et al., J. Natl. Cancer Inst. […] All of these methods are well known cell viability and cytotoxicity assays.

HSV-2 [7] = test: Cutaneous HSV-2 model in hairless guinea pigs, combination cream (Example 15); assay type: in vivo
[8] = male, hairless, guinea pig, in vivo, 2 day
vaccinia virus = test: microbe, parasite or virus in culture; assay type: cell-based, vaccinia virus (WR strain); conditions: cultures that lacked PFA; 15 mM n-docosanol
Cytomegalovirus (CMV) = test: CMV infectious center assay in MRC-5 cells; assay type: cell-based, human cytomegalovirus (Towne strain)
[9] = Human alphaherpesvirus 2, Vero, read-out: Percent Inhibition of Plaque Formation
[10] = Human betaherpesvirus 5, MRC5, read-out: % Inhibition of infected cells

SMILES: CCCCCCCCCCCCCCCCCCCCCCO [n-docosanol]
- fewer plaques than untreated or PLURONIC F-68-treated controls (HSV-2 [1]; 3 mM n-docosanol, without ACV): 40%
- EC50 (HSV-2 [1]; Human alphaherpesvirus 2, Vero, read-out: 50% Inhibition Concentration (mM)): 8.6 mM
- EC50 (HSV-2 [1]; Human alphaherpesvirus 2, Vero, read-out: EC50 of plaque formation inhibition, octoxynol (TRITON X-100) suspension): ~4.5 mM
- inhibition at 1000 µM (HSV-2 [1]; [9]): 14%
- inhibition at 2000 µM (HSV-2 [1]; [9]): 40%
- inhibition at 4000 µM (HSV-2 [1]; [9]): 36%
- inhibition at 8000 µM (HSV-2 [1]; [9]): 44%
- inhibition at 15000 µM (HSV-2 [1]; [9]): 66%
- EC50 (HSV-2 [1]; Human alphaherpesvirus 2, Vero, read-out: amount of n-docosanol required for 50% inhibition of plaque production, after increasing the ratio of surfactant to n-docosanol): 3 mM
- EC50 (HSV-2 [1]; Human alphaherpesvirus 2, Vero, read-out: amount of n-docosanol required for 50% inhibition of plaque production, before increasing the ratio of surfactant to n-docosanol): 15 mM
- EC50 (HSV-2 [1]; Human alphaherpesvirus 2, Vero, read-out: effective concentration required to inhibit plaque formation by 50% (EC50), surfactant suspension, Example 5): 9 mM
- EC50 (HSV-2 [1]; Human alphaherpesvirus 2, Vero, read-out: n-docosanol EC50, HSV-2 plaque formation, in conjunction with ACV in the range of 0.2-10 μM): 2 to 3 mM
- EC50 (HSV-2 [1]; Human alphaherpesvirus 2, Vero, read-out: n-docosanol EC50, HSV-2 plaque formation, used alone): 2 to 3 mM
- n-docosanol concentrations inhibiting plaque formation relative to octoxynol control (HSV-2 [1]; octoxynol (TRITON X-100) suspension): greater than or equal to 2 mM
- IC50 (B cell hybridoma (MBI-9)): ~20 mM
- EC50 ([2]; Human alphaherpesvirus 3, MRC5, MRC-5 cells, read-out: n-docosanol EC50 for inhibition of VZV replication): ~10 mM
- inhibition at 3300 µM ([2]; Human alphaherpesvirus 3, MRC5, VZV, n-Docosanol 3.3 mM, read-out: % Inhibition of infected cells): 40%
- inhibition at 10000 µM ([2]; Human alphaherpesvirus 3, MRC5, VZV, n-Docosanol 10 mM, read-out: % Inhibition of infected cells): 57%
- inhibition at 30000 µM ([2]; Human alphaherpesvirus 3, MRC5, VZV, n-Docosanol 30 mM, read-out: % Inhibition of infected cells): 80%
- IC per Culture × 10^−4 ([2]; VZV, n-Docosanol 3.3 mM): 21 × 10^−4
- IC per Culture × 10^−4 ([2]; VZV, n-Docosanol 10 mM): 15 × 10^−4
- IC per Culture × 10^−4 ([2]; VZV, n-Docosanol 30 mM): 7 × 10^−4
- n-docosanol concentration that inhibited proliferation of cells [3]: greater than 3 mM
- induced inflammation or toxicity [4]: not detected
- inhibition of early viral protein synthesis [5]: more than 80%
- Vero Cells % Control (Vero cells; 24 h): 101%
- Vero Cells No. Viable (Vero cells; 24 h): 7.48 × 10^5
- Vero Cells % Control (Vero cells; 48 h): 137%
- Vero Cells No. Viable (Vero cells; 48 h): 8.69 × 10^5
- Vero Cells % Control (Vero cells; 72 h): 120%
- Vero Cells No. Viable (Vero cells; 72 h): 8.61 × 10^5
- fewer HSV-1 PFU than untreated cultures (HSV-1; 15 mM n-docosanol alone, three days post-infection): about 10 fold
- inhibition at 3300 µM (HSV-1; Human alphaherpesvirus 1, Vero, read-out: inhibition of PFU production): 55%
- Number of Vesicles Day 2 (HSV-2 [6]; 10% w/w cream topically 3X/day from 24 hr post-inoculation): 40
- Number of Vesicles Day 3 (HSV-2 [6]; 10% w/w cream topically 3X/day): 12
- Number of Vesicles Day 4 (HSV-2 [6]; 10% w/w cream topically 3X/day): 3
- Number of Vesicles Day 2 (HSV-2 [6]; 10% w/w cream topically 5X/day): 43
- Number of Vesicles Day 3 (HSV-2 [6]; 10% w/w cream topically 5X/day): 5
- Number of Vesicles Day 4 (HSV-2 [6]; 10% w/w cream topically 5X/day): 3
- Fetal Foreskin Cells No. Viable (Fetal Foreskin Cells; 24 hr): 2.41 × 10^5
- Fetal Foreskin Cells No. Viable (Fetal Foreskin Cells; 48 hr): 2.78 × 10^5
- Fetal Foreskin Cells No. Viable (Fetal Foreskin Cells; 72 hr): 2.72 × 10^5
- Fetal Foreskin Cells % Control (Fetal Foreskin Cells; 24 hr): 131%
- Fetal Foreskin Cells % Control (Fetal Foreskin Cells; 48 hr): 118%
- Fetal Foreskin Cells % Control (Fetal Foreskin Cells; 72 hr): 118%
- IC50 (all cell lines tested): > 15 mM
- reduction of mean vesicle numbers (HSV-2 [7]; 96 hours post-HSV-2-inoculation, cream two times daily, untreated mean 27 vesicles): 63%
- mean AUC (mean number of vesicles times hours vesicles were observed) (HSV-2 [7]; cream two times daily, untreated 698): 464 vesicle hours
- inhibition of AUC (HSV-2 [7]; vs untreated AUC 698 vesicle hours): 34%
- Irritation Score Day 2 [8]: 0
- inhibition of vaccinia virus replication (in words) (vaccinia virus): does not inhibit replication of vaccinia virus
- inhibition at 3300 µM (Cytomegalovirus (CMV); [10]): 20%
- inhibition at 10000 µM (Cytomegalovirus (CMV); [10]): 60%
- inhibition at 30000 µM (Cytomegalovirus (CMV); [10]): 85%
- EC50 (Cytomegalovirus (CMV); Human betaherpesvirus 5, MRC5, read-out: n-docosanol EC50 for inhibition of CMV replication, MRC-5 cells): ~10 mM
